Test results published in patent US11596639B2, “Substituted indole Mcl-1 inhibitors” (Vanderbilt University, priority 2016, dated 2023).
Like-named read-outs stand apart in the source and are kept apart here.

Key:
Mcl-1 = Mcl-1 (Homo sapiens (Human), UniProt Q07820); assay: Fluorescence polarization anisotropy (FPA) competition assay, FITC-Bak or FITC-Bim BH3 peptide; format: binding; conditions: read-out: Ki for Inhibition of Mcl-1 by FPA assay
[1] = tested on: H929 human cancer cell lines; assay: Cellular viability / proliferation (Cell TiterGlo, 72 h); format: cell-based
In short: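 Compounds were added as 2-fold serial dilutions from 50 μM (final DMSO <1%) to H929 cells seeded 1,000 per well in 10% FBS medium one day earlier.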

[2] = Homo sapiens, NCI-H929, 72 h, read-out: GI50 on cellular proliferation of H929 human cancer cell lines, H929 cells, 72 h, Cell TiterGlo, 10% FBS
[3] = read-out: GI50 on cellular proliferation of H929 human cancer cell lines, H929 cells, 72 h, Cell TiterGlo, 10% FBS

Mcl-1, sequence (Q07820 172-327): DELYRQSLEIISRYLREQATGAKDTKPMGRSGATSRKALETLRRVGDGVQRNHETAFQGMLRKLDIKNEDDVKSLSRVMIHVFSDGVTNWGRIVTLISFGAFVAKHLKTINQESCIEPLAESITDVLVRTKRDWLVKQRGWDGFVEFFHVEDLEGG

Compound | Ki (Mcl-1) [nM] | GI50 [1, 2] [nM] | GI50 [1, 3] [nM] | GI50 ([1]; H929 cells, 72 h, Cell TiterGlo, 10% FBS, read-out: GI50 on cellular proliferation of H929 human cancer cell lines) [nM]
Cc1cc(OCCCc2c3n(c4c(-c5c(C)nn(C)c5C)c(Cl)ccc24)[C@H](C)CN(c2cc(C(=O)O)c4ccccc4c2)C3=O)cc(C)c1Cl [Example 188, (R)-3-(7-Chloro-10-(3-(4-chloro-3,5-dimethylphenoxy)propyl)-4-methyl-1-oxo-6-(1,3,5-trimethyl-1H-pyrazol-4-yl)-3,4-dihydropyrazino[1,2-a]indol-2(1H)-yl)-1-naphthoic acid] | 6.4 | 2700 | – | –
Cc1cc(OCCCc2c3n(c4c(-c5c(C)nn(C)c5C)c(Cl)ccc24)[C@H](C)CN(c2cn(Cc4ccccn4)c4cc(C(=O)O)ccc24)C3=O)cc(C)c1Cl [Example 338, (R)-3-(7-Chloro-10-(3-(4-chloro-3,5-dimethylphenoxy)propyl)-4-methyl-1-oxo-6-(1,3,5-trimethyl-1H-pyrazol-4-yl)-3,4-dihydropyrazino[1,2-a]indol-2(1H)-yl)-1-(pyridin-2-ylmethyl)-1H-indole-6-carboxylic acid] | < 1 | 2000 | – | –
Cc1cc(OCCCc2c3n(c4c(-c5c(C)nn(CC6CCN(C)C6)c5C)c(Cl)ccc24)[C@H](C)CN(c2cn(C)c4ccc(C(=O)O)cc24)C3=O)cc(C)c1Cl (stereo partly drawn) [Example 261, 3-((4R)-7-chloro-10-(3-(4-chloro-3,5-dimethylphenoxy)propyl)-6-(3,5-dimethyl-1-((1-methylpyrrolidin-3-yl)methyl)-1H-pyrazol-4-yl)-4-methyl-1-oxo-3,4-dihydropyrazino[1,2-a]indol-2(1H)-yl)-1-methyl-1H-indole-5-carboxylic acid] | < 1 | 530 | – | –
Cc1cc(OCCCc2c3n(c4c(-c5c(C)nn(C)c5C)c(Cl)ccc24)[C@H](C)CN(c2cc(OCCN(C)C)cc4cc(C(=O)O)n(C)c24)C3=O)cc(C)c1Cl [Example 455, (R)-7-(7-Chloro-10-(3-(4-chloro-3,5-dimethylphenoxy)propyl)-4-methyl-1-oxo-6-(1,3,5-trimethyl-1H-pyrazol-4-yl)-3,4-dihydropyrazino[1,2-a]indol-2(1H)-yl)-5-(2-(dimethylamino)ethoxy)-1-methyl-1H-indole-2-carboxylic acid] | < 1 | 220 | – | –
Cc1cc(OCCCc2c3n(c4c(-c5c(C)nn(C)c5C)c(Cl)ccc24)[C@H](C)CN(c2cccc4cc(C(=O)O)[nH]c24)C3=O)cc(C)c1Cl [Example 242, 7-[(4R)-7-chloro-10-[3-(4-chloro-3,5-dimethyl-phenoxy)propyl]-4-methyl-1-oxo-6-(1,3,5-trimethylpyrazol-4-yl)-3,4-dihydropyrazino[1,2-a]indol-2-yl]-1H-indole-2-carboxylic acid] | < 1 | – | 1300 | –
Cc1cc(OCCCc2c3n(c4c(-c5c(C)ncnc5C)c(Cl)ccc24)[C@H](C)CN(c2ccc(C(=O)O)c4cccnc24)C3=O)cc(C)c1Cl [Example 224, 8-[(4R)-7-chloro-10-[3-(4-chloro-3,5-dimethyl-phenoxy)propyl]-6-(4,6-dimethylpyrimidin-5-yl)-4-methyl-1-oxo-3,4-dihydropyrazino[1,2-a]indol-2-yl]quinoline-5-carboxylic acid] | < 1 | 2500 | – | –
COc1cc(N2C[C@@H](C)n3c(c(CCCOc4cc(C)c(Cl)c(C)c4)c4ccc(Cl)c(-c5c(C)nn(C)c5C)c43)C2=O)c2cc(C(=O)O)n(C)c2c1 [Example 334, (M, R)-4-(7-Chloro-10-(3-(4-chloro-3,5-dimethylphenoxy)propyl)-4-methyl-1-oxo-6-(1,3,5-trimethyl-1H-pyrazol-4-yl)-3,4-dihydropyrazino[1,2-a]indol-2(1H)-yl)-6-methoxy-1-methyl-1H-indole-2-carboxylic acid] | < 1 | – | – | 1200
Cc1ccnc(Cn2c(C(=O)O)cc3cc(OC(F)(F)F)cc(N4C[C@@H](C)n5c(c(CCCOc6cc(C)c(Cl)c(C)c6)c6ccc(Cl)c(-c7c(C)nn(C)c7C)c65)C4=O)c32)c1 [Example 474, (R)-7-(7-Chloro-10-(3-(4-chloro-3,5-dimethylphenoxy)propyl)-4-methyl-1-oxo-6-(1,3,5-trimethyl-1H-pyrazol-4-yl)-3,4-dihydropyrazino[1,2-a]indol-2(1H)-yl)-1-((4-methylpyridin-2-yl)methyl)-5-(trifluoromethoxy)-1H-indole-2-carboxylic acid] | 17 | 1200 | – | –
Cc1cc(OCCCc2c3n(c4c(-c5c(C)nn(C)c5C)c(Cl)ccc24)[C@H](C)CN(c2cc(Cl)cc4cc(C(=O)O)oc24)C3=O)cc(C)c1Cl [Example 259, (R)-5-Chloro-7-(7-chloro-10-(3-(4-chloro-3,5-dimethylphenoxy)propyl)-4-methyl-1-oxo-6-(1,3,5-trimethyl-1H-pyrazol-4-yl)-3,4-dihydropyrazino[1,2-a]indol-2(1H)-yl)benzofuran-2-carboxylic acid] | < 1 | – | 3500 | –
Cc1cc(OCCCc2c3n(c4c(-c5c(C)nn(C)c5C)c(Cl)ccc24)CCCN(c2cc(C(=O)O)c4c(Br)cn(C)c4c2)C3=O)cc(C)c1Cl [Example 2, 3-Bromo-6-(8-chloro-11-(3-(4-chloro-3,5-dimethylphenoxy)propyl)-1-oxo-7-(1,3,5-trimethyl-1H-pyrazol-4-yl)-4,5-dihydro-1H-[1,4]diazepino[1,2-a]indol-2(3H)-yl)-1-methyl-1H-indole-4-carboxylic acid] | < 1 | 8300 | – | –
Cc1cc(OCCCc2c3n(c4c(-c5c(C)ncnc5C)c(Cl)ccc24)[C@H](C)CN(c2cccc4c(C(=O)O)cccc24)C3=O)cc(C)c1Cl [Example 148, 5-[(4R)-7-chloro-10-[3-(4-chloro-3,5-dimethyl-phenoxy)propyl]-6-(4,6-dimethylpyrimidin-5-yl)-4-methyl-1-oxo-3,4-dihydropyrazino[1,2-a]indol-2-yl]naphthalene-1-carboxylic acid] | < 1 | 650 | – | –
Cc1cc(OCCCc2c3n(c4c(-c5c(C)nn(C)c5C)c(Cl)ccc24)[C@H](C)CN(c2cn(C)c4ccc(-c5nnco5)cc24)C3=O)cc(C)c1Cl [Example 346, (R)-7-Chloro-10-(3-(4-chloro-3,5-dimethylphenoxy)propyl)-4-methyl-2-(1-methyl-5-(1,3,4-oxadiazol-2-yl)-1H-indol-3-yl)-6-(1,3,5-trimethyl-1H-pyrazol-4-yl)-3,4-dihydropyrazino[1,2-a]indol-1(2H)-one] | 5.1 | 1600 | – | –
Cc1cc(OCCCc2c3n(c4c(-c5c(C)nn(C)c5C)c(Cl)ccc24)[C@H](C)CN(c2cc(C(=O)O)cc4c2cnn4C)C3=O)cc(C)c1Cl [Example 84, (R)-4-(7-chloro-10-(3-(4-chloro-3,5-dimethylphenoxy)propyl)-4-methyl-1-oxo-6-(1,3,5-trimethyl-1H-pyrazol-4-yl)-3,4-dihydropyrazino[1,2-a]indol-2(1H)-yl)-1-methyl-1H-indazole-6-carboxylic acid] | < 1 | 1200 | – | –
Cc1cc(OCCCc2c3n(c4c(-c5c(C)nn(C)c5C)c(Cl)ccc24)[C@H](C)CN(c2nn(C)c4cc(C(=O)O)ccc24)C3=O)cc(C)c1Cl [Example 48, (R)-3-(7-chloro-10-(3-(4-chloro-3,5-dimethylphenoxy)propyl)-4-methyl-1-oxo-6-(1,3,5-trimethyl-1H-pyrazol-4-yl)-3,4-dihydropyrazino[1,2-a]indol-2(1H)-yl)-1-methyl-1H-indazole-6-carboxylic acid] | < 1 | 800 | – | –
Cc1cc(N2C[C@@H](C)n3c(c(CCCOc4cc(C)c(Cl)c(C)c4)c4ccc(Cl)c(-c5c(C)nn(C)c5C)c43)C2=O)c2c(c1)c(C(=O)O)cn2C [Example 162, (R)-7-(7-chloro-10-(3-(4-chloro-3,5-dimethylphenoxy)propyl)-4-methyl-1-oxo-6-(1,3,5-trimethyl-1H-pyrazol-4-yl)-3,4-dihydropyrazino[1,2-a]indol-2(1H)-yl)-1,5-dimethyl-1H-indole-3-carboxylic acid] | < 1 | – | 260 | –
Cc1cc(OCCCc2c3n(c4c(-c5c(C)nn(C)c5C)c(Cl)ccc24)CCCN(c2cc(C(=O)O)c4cn[nH]c4c2)C3=O)cc(C)c1Cl [Example 44, 6-[8-chloro-11-[3-(4-chloro-3,5-dimethyl-phenoxy)propyl]-1-oxo-7-(1,3,5-trimethylpyrazol-4-yl)-4,5-dihydro-3H-[1,4]diazepino[1,2-a]indol-2-yl]-1H-indazole-4-carboxylic acid] | < 1 | 14000 | – | –
COc1ccnc(Cn2c(C(=O)O)cc3cccc(N4C[C@@H](C)n5c(c(CCCOc6cc(C)c(Cl)c(C)c6)c6ccc(Cl)c(-c7c(C)nn(C)c7C)c65)C4=O)c32)c1 [Example 378, (R)-7-(7-Chloro-10-(3-(4-chloro-3,5-dimethylphenoxy)propyl)-4-methyl-1-oxo-6-(1,3,5-trimethyl-1H-pyrazol-4-yl)-3,4-dihydropyrazino[1,2-a]indol-2(1H)-yl)-1-((4-methoxypyridin-2-yl)methyl)-1H-indole-2-carboxylic acid] | 1.9 | 410 | – | –
Cc1cc(OCCCc2c3n(c4c(-c5c(C)ncnc5C)c(C)ccc24)[C@H](C)CN(c2cccc4cc(C(=O)O)n(Cc5ccccn5)c24)C3=O)cc(C)c1Cl (atropisomer, axis not shown) [Example 271, (R)-7-(10-(3-(4-chloro-3,5-dimethylphenoxy)propyl)-6-(4,6-dimethylpyrimidin-5-yl)-4,7-dimethyl-1-oxo-3,4-dihydropyrazino[1,2-a]indol-2(1H)-yl)-1-(pyridin-2-ylmethyl)-1H-indole-2-carboxylic acid] | < 1 | 260 | – | –
